Results published in BindingDB's records for doi:10.1038/nchembio.2195 (University of Texas M. D. Anderson Cancer Center, 2016).

Columns and labels:
Alpha-enolase = Alpha-enolase (Homo sapiens, UniProt P06733); test: Enolase Enzymatic Assays; conditions: pH 7.4
Method: (§1) Enolase activity was measured by two different methods: a fluorometric NADH-linked assay or adirect spectrophotometric assay via formation of PEP. In the fluorescent assay,enolase activity was measured via NADH oxidation in a pyruvate kinase-dehydrogenase coupled assay. The assay is conducted in 10 mM KCl, 5 mM MgSO4, and 100 mM triethanolamine at pH 7.4, with 400 uM NADH and 2 mM ADP. 2-PGA, pyruvate kinase (PK) and lactate dehydrogenase(LDH) are provided in excess, with conversion of 2-PGA to PEP by enolase being rate limiting. PEP (with ADP) is substrate of PK; pyruvate formed by thisreaction is linked to NADH oxidation by LDH. Enolase activity is determinedby fluorescence measurement of oxidation of NADH by excitation at 340 nmand emission at 460 nm. The substrate concentration was 5 mM 2-PGA unlessotherwise indicated. Fluorescence was measured using an Omega FluorescencePlate Reader (BMG Labtech). Alternatively, enolase activity was measured directly by the appearance of PEP from 2-PGA via absorption at 240 nm. The assay medium was the same, except that all the auxiliary reagents (PK or LDH, NADH and ADP) are omitted. Both assays were conducted in a 96-well plate format, with the direct assay performed in UV-transmissible plates.

Gamma-enolase = Gamma-enolase (Homo sapiens, UniProt P09104); test: Enolase Enzymatic Assays; conditions: pH 7.4
Chain of Gamma-enolase (P09104 whole entry): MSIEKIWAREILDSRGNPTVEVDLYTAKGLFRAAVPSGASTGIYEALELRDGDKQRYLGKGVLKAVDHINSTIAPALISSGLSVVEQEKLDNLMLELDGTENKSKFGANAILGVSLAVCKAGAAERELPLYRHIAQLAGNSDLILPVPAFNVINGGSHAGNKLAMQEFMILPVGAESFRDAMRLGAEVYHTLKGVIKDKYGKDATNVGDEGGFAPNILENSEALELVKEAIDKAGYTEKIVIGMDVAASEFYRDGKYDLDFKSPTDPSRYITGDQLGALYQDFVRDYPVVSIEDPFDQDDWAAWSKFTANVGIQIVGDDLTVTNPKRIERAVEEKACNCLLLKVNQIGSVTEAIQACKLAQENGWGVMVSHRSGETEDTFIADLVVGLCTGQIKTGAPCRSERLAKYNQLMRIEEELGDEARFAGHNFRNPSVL
Method: as §1

Chain of Alpha-enolase (P06733 whole entry): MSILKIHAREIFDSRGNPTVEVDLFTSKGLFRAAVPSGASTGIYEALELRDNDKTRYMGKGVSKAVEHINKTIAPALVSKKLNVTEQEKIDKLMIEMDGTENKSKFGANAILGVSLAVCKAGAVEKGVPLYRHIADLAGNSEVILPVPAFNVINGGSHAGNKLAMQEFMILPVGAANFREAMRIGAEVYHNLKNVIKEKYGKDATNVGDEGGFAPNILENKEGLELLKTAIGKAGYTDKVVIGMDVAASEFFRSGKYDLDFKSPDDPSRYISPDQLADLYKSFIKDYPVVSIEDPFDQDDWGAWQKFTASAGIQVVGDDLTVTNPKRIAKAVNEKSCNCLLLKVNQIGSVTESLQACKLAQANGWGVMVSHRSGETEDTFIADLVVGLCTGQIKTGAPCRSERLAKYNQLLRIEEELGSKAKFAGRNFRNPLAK

O=C1[C@@H](P(=O)(O)O)C[C@H](O)N1O [SF2312]
IC50 (Alpha-enolase): 37.9 nM
IC50 (Gamma-enolase): 42.5 nM

O=C(CP(=O)(O)O)NO [phosphonoacetohydroxamate (PhAH)]
IC50 (Alpha-enolase): 53.2 nM
IC50 (Gamma-enolase): 62.3 nM
